{"source": "ChEMBL document CHEMBL3885861", "about": "“Open TG-GATES”", "species_on_record": "Rattus norvegicus", "experiment": "Open TG-GATES - Regimen: Single", "type": "toxicity, organism-based, Sprague-Dawley", "parameters": "regimen Single, gender Male, age 6 weeks", "settings": "in vivo, po, 10 mg/kg, route gavage, dose level Low; for APTT / Bas / Eos / Fbg / Hb / Ht / Lym / MCH / MCHC / MCV / Mono / Neu / PT / Plat / RBC / Ret / WBC: tissue Blood; for KIDNEY_L / KIDNEY_R / KIDNEY_TOTAL: tissue Kidney; for LIVER: tissue Liver; for A/G / ALP / ALT / AST / BUN / CRE / Ca / Cl / DBIL / GLC / IP / K / LDH / Na / PL / RALB / TBIL / TC / TG / TP / gamma-GTP: tissue Plasma"}
{"smiles": "CCCc1cc(=O)[nH]c(=S)[nH]1", "note": "[PROPYLTHIOURACIL]", "values": [{"measurement": "TERMINAL_BW", "setting": "3 h", "value": 181.7, "unit": "g"}, {"measurement": "APTT", "setting": "3 h", "value": 15.5, "unit": "s"}, {"measurement": "Bas", "setting": "3 h", "value": 0, "unit": "%"}, {"measurement": "Eos", "setting": "3 h", "value": 0.6, "unit": "%"}, {"measurement": "Fbg", "setting": "3 h", "value": 202.8, "unit": "mg/dL"}, {"measurement": "Hb", "setting": "3 h", "value": 13.1, "unit": "g/dL"}, {"measurement": "Ht", "setting": "3 h", "value": 39.5, "unit": "%"}, {"measurement": "Lym", "setting": "3 h", "value": 78.6, "unit": "%"}, {"measurement": "MCH", "setting": "3 h", "value": 22.3, "unit": "pg"}, {"measurement": "MCHC", "setting": "3 h", "value": 33.3, "unit": "%"}, {"measurement": "MCV", "setting": "3 h", "value": 66.9, "unit": "fL"}, {"measurement": "Mono", "setting": "3 h", "value": 8.6, "unit": "%"}, {"measurement": "Neu", "setting": "3 h", "value": 12.4, "unit": "%"}, {"measurement": "PT", "setting": "3 h", "value": 12.9, "unit": "s"}, {"measurement": "Plat", "setting": "3 h", "value": 102.8, "unit": "x10_4/uL"}, {"measurement": "RBC", "setting": "3 h", "value": 590.2, "unit": "x10_4/ul"}, {"measurement": "Ret", "setting": "3 h", "value": 10.1, "unit": "%"}, {"measurement": "WBC", "setting": "3 h", "value": 92.2, "unit": "x10_2/uL"}, {"measurement": "KIDNEY_L", "setting": "3 h", "value": 0.9, "unit": "g"}, {"measurement": "KIDNEY_R", "setting": "3 h", "value": 0.9, "unit": "g"}, {"measurement": "KIDNEY_TOTAL", "setting": "3 h", "value": 1.7, "unit": "g"}, {"measurement": "LIVER", "setting": "3 h", "value": 8.4, "unit": "g"}, {"measurement": "A/G", "setting": "3 h", "value": 2}, {"measurement": "ALP", "setting": "3 h", "value": 982.6, "unit": "IU/L"}, {"measurement": "ALT", "setting": "3 h", "value": 41.6, "unit": "IU/L"}, {"measurement": "AST", "setting": "3 h", "value": 72.2, "unit": "IU/L"}, {"measurement": "BUN", "setting": "3 h", "value": 12, "unit": "mg/dL"}, {"measurement": "CRE", "setting": "3 h", "value": 0.4, "unit": "mg/dL"}, {"measurement": "Ca", "setting": "3 h", "value": 11.1, "unit": "mg/dL"}, {"measurement": "Cl", "setting": "3 h", "value": 105, "unit": "meq/L"}, {"measurement": "DBIL", "setting": "3 h", "value": 0.042, "unit": "mg/dL"}, {"measurement": "GLC", "setting": "3 h", "value": 191.4, "unit": "mg/dL"}, {"measurement": "IP", "setting": "3 h", "value": 10.3, "unit": "mg/dL"}, {"measurement": "K", "setting": "3 h", "value": 4.8, "unit": "meq/L"}, {"measurement": "LDH", "setting": "3 h", "value": 92, "unit": "IU/L"}, {"measurement": "Na", "setting": "3 h", "value": 138.6, "unit": "meq/L"}, {"measurement": "PL", "setting": "3 h", "value": 122.2, "unit": "mg/dL"}, {"measurement": "RALB", "setting": "3 h", "value": 3.6, "unit": "g/dL"}, {"measurement": "TBIL", "setting": "3 h", "value": 0.3, "unit": "mg/dL"}, {"measurement": "TC", "setting": "3 h", "value": 69.2, "unit": "mg/dL"}, {"measurement": "TG", "setting": "3 h", "value": 26.6, "unit": "mg/dL"}, {"measurement": "TP", "setting": "3 h", "value": 5.5, "unit": "g/dL"}, {"measurement": "gamma-GTP", "setting": "3 h", "value": 1.4, "unit": "IU/L"}, {"measurement": "TERMINAL_BW", "setting": "6 h", "value": 174.6, "unit": "g"}, {"measurement": "APTT", "setting": "6 h", "value": 15.6, "unit": "s"}, {"measurement": "Bas", "setting": "6 h", "value": 0, "unit": "%"}, {"measurement": "Eos", "setting": "6 h", "value": 0.8, "unit": "%"}, {"measurement": "Fbg", "setting": "6 h", "value": 208.2, "unit": "mg/dL"}, {"measurement": "Hb", "setting": "6 h", "value": 13.7, "unit": "g/dL"}, {"measurement": "Ht", "setting": "6 h", "value": 41.1, "unit": "%"}, {"measurement": "Lym", "setting": "6 h", "value": 78.4, "unit": "%"}, {"measurement": "MCH", "setting": "6 h", "value": 22, "unit": "pg"}, {"measurement": "MCHC", "setting": "6 h", "value": 33.3, "unit": "%"}, {"measurement": "MCV", "setting": "6 h", "value": 66, "unit": "fL"}, {"measurement": "Mono", "setting": "6 h", "value": 7.4, "unit": "%"}, {"measurement": "Neu", "setting": "6 h", "value": 13.4, "unit": "%"}, {"measurement": "PT", "setting": "6 h", "value": 12.8, "unit": "s"}, {"measurement": "Plat", "setting": "6 h", "value": 100.8, "unit": "x10_4/uL"}, {"measurement": "RBC", "setting": "6 h", "value": 622.8, "unit": "x10_4/ul"}, {"measurement": "Ret", "setting": "6 h", "value": 8.9, "unit": "%"}, {"measurement": "WBC", "setting": "6 h", "value": 89.5, "unit": "x10_2/uL"}, {"measurement": "KIDNEY_L", "setting": "6 h", "value": 0.8, "unit": "g"}, {"measurement": "KIDNEY_R", "setting": "6 h", "value": 0.8, "unit": "g"}, {"measurement": "KIDNEY_TOTAL", "setting": "6 h", "value": 1.7, "unit": "g"}, {"measurement": "LIVER", "setting": "6 h", "value": 7.7, "unit": "g"}, {"measurement": "A/G", "setting": "6 h", "value": 2}, {"measurement": "ALP", "setting": "6 h", "value": 969.6, "unit": "IU/L"}, {"measurement": "ALT", "setting": "6 h", "value": 33, "unit": "IU/L"}, {"measurement": "AST", "setting": "6 h", "value": 64.6, "unit": "IU/L"}, {"measurement": "BUN", "setting": "6 h", "value": 12.4, "unit": "mg/dL"}, {"measurement": "CRE", "setting": "6 h", "value": 0.5, "unit": "mg/dL"}, {"measurement": "Ca", "setting": "6 h", "value": 10.8, "unit": "mg/dL"}, {"measurement": "Cl", "setting": "6 h", "value": 105.4, "unit": "meq/L"}, {"measurement": "DBIL", "setting": "6 h", "value": 0.05, "unit": "mg/dL"}, {"measurement": "GLC", "setting": "6 h", "value": 181.8, "unit": "mg/dL"}, {"measurement": "IP", "setting": "6 h", "value": 10.6, "unit": "mg/dL"}, {"measurement": "K", "setting": "6 h", "value": 5.2, "unit": "meq/L"}, {"measurement": "LDH", "setting": "6 h", "value": 68, "unit": "IU/L"}, {"measurement": "Na", "setting": "6 h", "value": 138.4, "unit": "meq/L"}, {"measurement": "PL", "setting": "6 h", "value": 125.8, "unit": "mg/dL"}, {"measurement": "RALB", "setting": "6 h", "value": 3.6, "unit": "g/dL"}, {"measurement": "TBIL", "setting": "6 h", "value": 0.4, "unit": "mg/dL"}, {"measurement": "TC", "setting": "6 h", "value": 68.4, "unit": "mg/dL"}, {"measurement": "TG", "setting": "6 h", "value": 34.6, "unit": "mg/dL"}, {"measurement": "TP", "setting": "6 h", "value": 5.4, "unit": "g/dL"}, {"measurement": "gamma-GTP", "setting": "6 h", "value": 1.4, "unit": "IU/L"}]}
